# Measurements: ChEMBL document CHEMBL5338790, “Discovery of Subcellular-Targeted Aza-BODIPY Photosensitizers for Efficient Photodynamic Antitumor Therapy” (J Med Chem, 2023)
# How the values were obtained:
# HeLa [1] = assay: Induction of apoptosis in human HeLa cells assessed as necrotic cells at 12.5 nM incubated for 3 hrs with photo-irradiation at 54 J/cm2 by Annexin V-FITC/PI staining based flow cytometry relative to control; type: functional
# HeLa [2] = assay: Induction of apoptosis in human HeLa cells assessed as early apoptotic cells at 50 nM incubated for 3 hrs with photo-irradiation at 54 J/cm2 by Annexin V-FITC/PI staining based flow cytometry relative to control; type: functional
# [3] = Drug uptake in human HeLa cells at 5 uM incubated for 3 hrs by confocal scanning microscopy; type: ADME, cell-based
# HeLa [4] = assay: Induction of apoptosis in human HeLa cells assessed as necrotic cells at 50 nM incubated for 3 hrs with photo-irradiation at 54 J/cm2 by Annexin V-FITC/PI staining based flow cytometry relative to control; type: functional
smiles,measurement,setting,value
COc1ccc2c(c1)CCc1c(-c3ccccc3)c3n(c1-2)[B-](F)(F)[N+]1=C(c2ccc(OCC(=O)NCCCN4CCOCC4)cc2)C(I)=C(c2ccccc2)C1=N3,Activity,HeLa [1],1.07%
same,Activity,HeLa [2],58.93%
same,Drug uptake,[3],Active
same,Activity,HeLa [4],2.08%
